According to patent US20220047603A1, “SUBSTITUTED PYRROLOPYRIDINE-DERIVATIVES” (BAYER AKTIENGESELLSCHAFT, priority 2018, published 2022):

Assays:
[1] = molecular target: MAP4K1 (Homo sapiens, UniProt Q92918); assay: MAP4K1 binding competition assay (TR-FRET, Tracer 222)
[2] = molecular target: T1, human ROCK-II (Homo sapiens, UniProt O75116); assay: ROCK-II kinase assay (ADP-Glo); format: biochemical; details: 10 μM ATP, 15 min preincubation, 30 min at 22° C.
T1 construct: human ROCK-II (amino acids 11-552); His6 (N); purchased Eurofins 14-451-K; host or cells: baculovirus infected SF21 insect cells
Procedure: ROCK-II-inhibitory activity of compounds of the present invention was quantified employing the ROCK-II assay as described in the following paragraphs. In essence, the enzyme activity is measured by quantification of the adenosine-di-phosphate (ADP), which is generated as a co-product of the enzyme reaction, via the “ADP-Glo™ Kinase Assay” kit from the company Promega. This detection system works as follows: In a first step the adenosine-tri-phosphate (ATP) not consumed in the kinase reaction is quantitatively converted to cAMP employing an adenylate cyclase (“ADP-Glo-reagent”), then the adenylate cyclase is stopped and the ADP generated in the kinase reaction converted to ATP which generates in a luciferase-based reaction a glow-luminescence signal (“Kinase Detection Reagent”).
As substrate for the kinase reaction the biotinylated peptide biotin-Ahx-[…] (C-terminus in amide form) was used which can be purchased e.g. from the company Biosyntan (Berlin-Buch, Germany).
The concentration of ROCK-II was adjusted depending of the activity of the enzyme lot and was chosen appropriate to have the assay in the linear range, a typical concentration is about 5 nM. The reaction was stopped by the addition of 2.5 μl of “ADP-Glo-reagent” (1:1, 5 fold diluted) and the resulting mixture was incubated at 22° C. for 1 h to convert the ATP not consumed in the kinase reaction completely to cAMP. […] The amount of emitted light was taken as a measure for the amount of ADP generated and thereby for the activity of the ROCK-II.

[3] = molecular target: T2, human TBK1 (Homo sapiens, UniProt Q9UHD2); assay: TBK1 high ATP kinase assay (TR-FRET); format: biochemical; details: 1 mM ATP, selectivity assay, 15 min preincubation
T2 construct: Recombinant full-length N-terminally His-tagged human TBK1; His (N); purchased Life Technologies PR5618B; host or cells: insect cells
T2 sequence (Q9UHD2 1-729): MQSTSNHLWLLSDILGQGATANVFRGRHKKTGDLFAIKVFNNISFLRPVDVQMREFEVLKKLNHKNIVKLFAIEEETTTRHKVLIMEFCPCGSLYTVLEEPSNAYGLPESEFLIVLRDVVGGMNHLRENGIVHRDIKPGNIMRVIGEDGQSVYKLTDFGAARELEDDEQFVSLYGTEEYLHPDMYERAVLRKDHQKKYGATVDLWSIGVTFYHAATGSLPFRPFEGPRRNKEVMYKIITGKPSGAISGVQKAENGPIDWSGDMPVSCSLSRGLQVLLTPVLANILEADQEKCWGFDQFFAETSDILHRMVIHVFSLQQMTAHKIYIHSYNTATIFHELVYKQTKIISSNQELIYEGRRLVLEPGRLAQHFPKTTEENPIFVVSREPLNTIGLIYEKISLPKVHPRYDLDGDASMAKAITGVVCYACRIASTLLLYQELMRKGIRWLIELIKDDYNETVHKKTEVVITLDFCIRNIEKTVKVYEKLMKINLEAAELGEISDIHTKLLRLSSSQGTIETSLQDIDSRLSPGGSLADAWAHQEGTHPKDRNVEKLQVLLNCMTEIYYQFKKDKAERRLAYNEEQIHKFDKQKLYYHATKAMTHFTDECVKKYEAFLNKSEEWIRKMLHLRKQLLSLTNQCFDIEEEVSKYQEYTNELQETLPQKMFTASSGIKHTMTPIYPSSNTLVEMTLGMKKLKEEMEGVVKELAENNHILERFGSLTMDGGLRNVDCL
Procedure: TBK1 High ATP Kinase Assay
TBK1-inhibitory activity of compounds of the present invention at a high ATP concentration after preincubation of enzyme and test compounds was quantified employing the TR-FRET-based TBK1 assay as described in the following paragraphs.
Recombinant full-length N-terminally His-tagged human TBK1, expressed in insect cells and purified by Ni-NTA affinity chromatography, was purchased from Life Technologies (Cat. No PR5618B) and used as enzyme. As substrate for the kinase reaction biotinylated peptide biotin-Ahx-[…] (C-terminus in amide form) was used which can be purchased e.g. form the company Biosyntan (Berlin-Buch, Germany).
The concentration of TBK1 was adjusted depending of the activity of the enzyme lot and was chosen appropriate to have the assay in the linear range, typical concentrations were in the range of 0.002-0.004 μg/mL. The reaction was stopped by the addition of 3 μL of a solution of TR-FRET detection reagents (0.33 μM streptavidine-XL665 [Cisbio Bioassays, Codolet, France], 2.5 nM anti-phosho-Serine antibody [Merck Millipore, “STK antibody”, cat. #35-002] and 1.25 nM LANCE EU-W1024 labeled anti-mouse IgG antibody [Perkin-Elmer, product no. AD0077]) in an aqueous EDTA-solution (167 mM EDTA, 0.13% (w/v) bovine serum albumin in 100 mM HEPES/NaOH pH 7.5).

T1 sequence (O75116 11-552): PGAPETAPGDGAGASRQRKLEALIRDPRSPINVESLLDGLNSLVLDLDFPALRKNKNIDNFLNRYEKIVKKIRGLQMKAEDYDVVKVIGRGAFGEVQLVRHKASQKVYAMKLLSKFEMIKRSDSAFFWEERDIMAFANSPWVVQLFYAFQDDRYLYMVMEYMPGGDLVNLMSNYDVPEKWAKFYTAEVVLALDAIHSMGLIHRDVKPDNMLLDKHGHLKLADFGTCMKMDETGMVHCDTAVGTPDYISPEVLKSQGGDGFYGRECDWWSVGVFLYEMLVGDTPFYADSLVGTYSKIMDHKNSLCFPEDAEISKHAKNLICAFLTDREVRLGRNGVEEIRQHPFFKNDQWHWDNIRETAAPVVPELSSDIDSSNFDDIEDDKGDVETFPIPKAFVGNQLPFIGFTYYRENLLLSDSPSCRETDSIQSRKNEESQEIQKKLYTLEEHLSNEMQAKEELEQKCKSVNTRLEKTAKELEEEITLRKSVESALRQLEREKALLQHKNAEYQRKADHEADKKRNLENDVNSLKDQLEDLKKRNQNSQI
MAP4K1, sequence (Q92918 whole entry): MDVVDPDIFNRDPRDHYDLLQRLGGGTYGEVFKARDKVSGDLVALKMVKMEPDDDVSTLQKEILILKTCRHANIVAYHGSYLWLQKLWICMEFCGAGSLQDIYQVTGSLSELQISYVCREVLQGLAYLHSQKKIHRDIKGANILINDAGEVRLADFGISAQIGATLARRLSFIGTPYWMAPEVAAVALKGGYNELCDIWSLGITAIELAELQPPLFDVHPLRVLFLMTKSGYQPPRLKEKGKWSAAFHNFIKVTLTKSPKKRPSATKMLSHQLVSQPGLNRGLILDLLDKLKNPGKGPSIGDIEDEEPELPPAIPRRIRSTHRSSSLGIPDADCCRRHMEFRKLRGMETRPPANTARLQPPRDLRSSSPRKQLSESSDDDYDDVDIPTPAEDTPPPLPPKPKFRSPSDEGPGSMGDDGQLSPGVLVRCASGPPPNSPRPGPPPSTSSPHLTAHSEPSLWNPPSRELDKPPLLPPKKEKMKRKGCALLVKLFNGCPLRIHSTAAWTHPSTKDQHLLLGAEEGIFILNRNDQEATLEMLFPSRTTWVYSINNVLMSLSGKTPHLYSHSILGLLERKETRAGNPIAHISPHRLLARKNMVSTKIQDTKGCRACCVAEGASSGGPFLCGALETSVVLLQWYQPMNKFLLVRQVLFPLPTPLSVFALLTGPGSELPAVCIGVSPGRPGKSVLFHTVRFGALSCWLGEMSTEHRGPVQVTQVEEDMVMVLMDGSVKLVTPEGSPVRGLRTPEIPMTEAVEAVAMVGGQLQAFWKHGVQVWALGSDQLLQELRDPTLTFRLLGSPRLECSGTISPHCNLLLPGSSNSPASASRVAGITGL

Structure (SMILES) | IC50 [1] [nM] | IC50 [2] [nM] | IC50 [3] [nM]
Fc1cc(NC2=NCC3(CC3)CO2)cc(F)c1Oc1ccnc2[nH]cc(C3(C(F)(F)F)CC3)c12 [Example 10, N-[3,5-difluoro-4-({3-[1-(trifluoromethyl)cyclopropyl]-1H-pyrrolo[2,3-b]pyridin-4-yl}oxy)phenyl]-5-oxa-7-azaspiro[2.5]oct-6-en-6-amine] |  |  | > 20000
CC1(C)CN=C(Nc2cc(F)c(Oc3ccnc4[nH]cc(C5(C(F)(F)F)CC5)c34)c(F)c2)OC1 [Example 9, N-[3,5-difluoro-4-({3-[1-(trifluoromethyl)cyclopropyl]-1H-pyrrolo[2,3-b]pyridin-4-yl}oxy)phenyl]-5,5-dimethyl-5,6-dihydro-4H-1,3-oxazin-2-amine] |  |  | > 20000
Fc1cc(NC2=NCC3(CCOC3)CO2)cc(F)c1Oc1ccnc2[nH]cc(C3(C(F)(F)F)CC3)c12 (single isomer, unassigned; enantiomer 1) [Example 6, N-[3,5-difluoro-4-({3-[1-(trifluoromethyl)cyclopropyl]-1H-pyrrolo[2,3-b]pyridin-4-yl}oxy)phenyl]-2,7-dioxa-9-azaspiro[4.5]dec-8-en-8-amine (single enantiomer 1)] |  |  | > 20000
CC1(C)CN=C(Nc2cc(F)c(Oc3ccnc4[nH]cc(C5(C(F)(F)F)CCC5)c34)c(F)c2)OC1 [Example 4, N-[3,5-difluoro-4-({3-[1-(trifluoromethyl)cyclobutyl]-1H-pyrrolo[2,3-b]pyridin-4-yl}oxy)phenyl]-5,5-dimethyl-5,6-dihydro-4H-1,3-oxazin-2-amine] | 6.2 | 4100 | > 20000
Fc1cc(NC2=NCC3(CCOC3)CO2)cc(F)c1Oc1ccnc2[nH]cc(C3(C(F)(F)F)CC3)c12 (racemic) [Example 5, (+/−)-N-[3,5-difluoro-4-({3-[1-(trifluoromethyl)cyclopropyl]-1H-pyrrolo[2,3-b]pyridin-4-yl}oxy)phenyl]-2,7-dioxa-9-azaspiro[4.5]dec-8-en-8-amine] |  |  | > 20000
Fc1cc(NC2=NCC3(CCOC3)CO2)cc(F)c1Oc1ccnc2[nH]cc(C3(C(F)(F)F)CC3)c12 (single isomer, unassigned; enantiomer 2) [Example 7, N-[3,5-difluoro-4-({3-[1-(trifluoromethyl)cyclopropyl]-1H-pyrrolo[2,3-b]pyridin-4-yl}oxy)phenyl]-2,7-dioxa-9-azaspiro[4.5]dec-8-en-8-amine (single enantiomer 2)] |  |  | > 20000
Fc1cc(NC2=NCC3(COC3)CO2)cc(F)c1Oc1ccnc2[nH]cc(C3(C(F)(F)F)CC3)c12 [Example 8, N-[3,5-difluoro-4-({3-[1-(trifluoromethyl)cyclopropyl]-1H-pyrrolo[2,3-b]pyridin-4-yl}oxy)phenyl]-2,6-dioxa-8-azaspiro[3.5]non-7-en-7-amine] | 5 | 500 | > 20000

More lines, now with the values ahead:

IC50 [1] [nM] | IC50 [2] [nM] | IC50 [3] [nM] | Structure (SMILES)
6.9 | 1300 | > 20000 | Fc1cc(NC2=NCC3(COC3)CO2)cc(F)c1Oc1ccnc2[nH]cc(C3(C(F)(F)F)CCC3)c12 [Example 14, N-[3,5-difluoro-4-({3-[1-(trifluoromethyl)cyclobutyl]-1H-pyrrolo[2,3-b]pyridin-4-yl}oxy)phenyl]-2,6-dioxa-8-azaspiro[3.5]non-7-en-7-amine]
8.5 | 5600 | > 20000 | Fc1cc(NC2=NCC3(CCC3)CO2)cc(F)c1Oc1ccnc2[nH]cc(C3(C(F)(F)F)CCC3)c12 [Example 1, N-[3,5-difluoro-4-({3-[1-(trifluoromethyl)cyclobutyl]-1H-pyrrolo[2,3-b]pyridin-4-yl}oxy)phenyl]-6-oxa-8-azaspiro[3.5]non-7-en-7-amine]
 |  | > 20000 | Fc1cc(NC2=NCC3(CCC3)CO2)cc(F)c1Oc1ccnc2[nH]cc(C3(C(F)(F)F)CC3)c12 [Example 12, N-[3,5-difluoro-4-({3-[1-(trifluoromethyl)cyclopropyl]-1H-pyrrolo[2,3-b]pyridin-4-yl}oxy)phenyl]-6-oxa-8-azaspiro[3.5]non-7-en-7-amine]
 |  | > 20000 | Fc1cc(NC2=NCC3(CCOCC3)CO2)cc(F)c1Oc1ccnc2[nH]cc(C3(C(F)(F)F)CC3)c12 [Example 11, N-[3,5-difluoro-4-({3-[1-(trifluoromethyl)cyclopropyl]-1H-pyrrolo[2,3-b]pyridin-4-yl}oxy)phenyl]-2,9-dioxa-4-azaspiro[5.5]undec-3-en-3-amine]
6.2 | 1200 | > 20000 | Fc1cc(NC2=NCC3(CCOC3)CO2)cc(F)c1Oc1ccnc2[nH]cc(C3(C(F)(F)F)CCC3)c12 (racemic) [Example 13, (+/−)-N-[3,5-difluoro-4-({3-[1-(trifluoromethyl)cyclobutyl]-1H-pyrrolo[2,3-b]pyridin-4-yl}oxy)phenyl]-2,7-dioxa-9-azaspiro[4.5]dec-8-en-8-amine]
4 | 1600 | > 20000 | Fc1cc(NC2=NCC3(CC3)CO2)cc(F)c1Oc1ccnc2[nH]cc(C3(C(F)(F)F)CCC3)c12 [Example 3, N-[3,5-difluoro-4-({3-[1-(trifluoromethyl)cyclobutyl]-1H-pyrrolo[2,3-b]pyridin-4-yl}oxy)phenyl]-5-oxa-7-azaspiro[2.5]oct-6-en-6-amine]
4.2 | 1900 | > 20000 | Fc1cc(NC2=NCC3(CCOCC3)CO2)cc(F)c1Oc1ccnc2[nH]cc(C3(C(F)(F)F)CCC3)c12 [Example 2, N-[3,5-difluoro-4-({3-[1-(trifluoromethyl)cyclobutyl]-1H-pyrrolo[2,3-b]pyridin-4-yl}oxy)phenyl]-2,9-dioxa-4-azaspiro[5.5]undec-3-en-3-amine]
